Patent publication US9233964B2, “Sulfamide piperazine derivatives as protein tyrosine kinase inhibitors and pharmaceutical use therof” (LEO PHARMA A/S, priority 2011, dated 2016)

Key:
Type in all cases: biochemical
TYK2 = target: T1, TYK2 (Homo sapiens, UniProt P29597); assay: JAK kinase assay (HTRF, phosphorylation of synthetic peptide), TYK2; conditions: catalytic domain, ATP at Km (13 μM); read-out: TYK2 kinase inhibitory activity (EC50)
T1 construct: JAK1 (aa 850-1154) and TYK2 (aa 871-1187) are expressed with an N-terminally fused GST-tag; GST (N); purchased Carna Biosciences, Inc; host or cells: baculovirus expression system
T1 sequence (P29597 871-1187): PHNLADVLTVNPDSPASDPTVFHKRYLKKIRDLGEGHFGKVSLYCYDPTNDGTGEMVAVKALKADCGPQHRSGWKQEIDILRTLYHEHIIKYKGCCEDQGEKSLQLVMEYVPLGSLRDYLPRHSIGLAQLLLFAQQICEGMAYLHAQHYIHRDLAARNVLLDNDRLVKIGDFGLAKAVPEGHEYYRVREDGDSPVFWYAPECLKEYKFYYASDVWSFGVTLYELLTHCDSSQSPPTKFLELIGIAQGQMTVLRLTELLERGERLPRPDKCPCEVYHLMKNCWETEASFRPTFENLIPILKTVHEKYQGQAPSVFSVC
How it was run: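 1 µM biotinylated TK peptide at Km ATP in pH 7.0 Hepes, 20-30 min RT. EDTA stop; overnight streptavidin-XL665/cryptate HTRF read.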

JAK1 = target: T2, JAK1 (Homo sapiens, UniProt P23458); assay: JAK kinase assay (HTRF, phosphorylation of synthetic peptide), JAK1; conditions: catalytic domain, ATP at Km (7 μM); read-out: JAK1 kinase inhibitory activity (EC50)
T2 construct: JAK1 (aa 850-1154) and TYK2 (aa 871-1187) are expressed with an N-terminally fused GST-tag; GST (N); purchased Carna Biosciences, Inc; host or cells: baculovirus expression system
How it was run: (§1)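 Catalytic-domain human JAK1 (GST-tagged, aa 850-1154) or His-tagged JAK2, baculovirus-expressed, phosphorylated 1 µM biotinylated TK peptide at Km ATP (JAK1 7 µM, 10 mM MgCl2, 50 nM SEB; JAK2 4 µM, 5 mM MgCl2) in pH 7.0 Hepes, 20-30 min RT. EDTA stop; overnight streptavidin-XL665/cryptate HTRF read.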

JAK2 = target: T3, JAK2 (Homo sapiens, UniProt O60674); assay: JAK kinase assay (HTRF, phosphorylation of synthetic peptide), JAK2; conditions: catalytic domain, ATP at Km (4 μM); read-out: JAK2 kinase inhibitory activity (EC50)
T3 construct: All four purified enzymes contain only the catalytic domain; His (N); purchased Carna Biosciences, Inc; host or cells: baculovirus expression system
How it was run: as §1

JAK3 = target: T4, JAK3 (Homo sapiens, UniProt P52333); assay: JAK kinase assay (HTRF, phosphorylation of synthetic peptide), JAK3; conditions: catalytic domain, ATP at Km (2 μM); read-out: JAK3 kinase inhibitory activity (EC50)
T4 construct: All four purified enzymes contain only the catalytic domain; His (N); purchased Carna Biosciences, Inc; host or cells: baculovirus expression system
T4 sequence (P52333 822-1111 limits assumed): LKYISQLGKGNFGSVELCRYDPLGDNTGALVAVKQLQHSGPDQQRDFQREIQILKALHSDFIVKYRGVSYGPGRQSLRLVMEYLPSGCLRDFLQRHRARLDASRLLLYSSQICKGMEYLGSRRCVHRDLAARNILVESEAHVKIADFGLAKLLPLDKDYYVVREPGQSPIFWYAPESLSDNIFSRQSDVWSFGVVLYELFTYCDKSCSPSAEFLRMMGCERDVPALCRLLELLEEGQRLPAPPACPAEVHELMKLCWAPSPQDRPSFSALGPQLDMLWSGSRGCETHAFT

T3 sequence (O60674 849-1124 limits assumed): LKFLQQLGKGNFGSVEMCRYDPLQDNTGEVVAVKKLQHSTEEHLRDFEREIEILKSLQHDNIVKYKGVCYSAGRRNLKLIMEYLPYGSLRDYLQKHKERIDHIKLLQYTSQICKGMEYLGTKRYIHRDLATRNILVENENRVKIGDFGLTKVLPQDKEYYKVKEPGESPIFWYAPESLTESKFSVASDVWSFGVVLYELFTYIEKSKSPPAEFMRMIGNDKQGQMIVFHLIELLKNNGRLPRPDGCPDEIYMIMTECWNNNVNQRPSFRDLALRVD
T2 sequence (P23458 850-1154): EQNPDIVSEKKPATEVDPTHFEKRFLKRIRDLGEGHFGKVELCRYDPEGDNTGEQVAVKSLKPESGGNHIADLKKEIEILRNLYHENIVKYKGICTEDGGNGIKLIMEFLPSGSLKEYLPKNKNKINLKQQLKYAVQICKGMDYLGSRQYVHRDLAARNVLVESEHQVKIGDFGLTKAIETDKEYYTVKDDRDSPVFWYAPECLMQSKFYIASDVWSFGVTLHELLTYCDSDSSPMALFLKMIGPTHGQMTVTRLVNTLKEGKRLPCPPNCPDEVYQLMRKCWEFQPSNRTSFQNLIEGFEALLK

| SMILES | EC50 (TYK2) [nM] | EC50 (JAK1) [nM] | EC50 (JAK2) [nM] | EC50 (JAK3) [nM] |
| --- | --- | --- | --- | --- |
| O=S(=O)(N(CCO)CCOc1ccccc1)N1CCN(c2ncnc3[nH]ccc23)CC12CC2 [Example 111, N-(2-hydroxyethyl)-N-(2-phenoxyethyl)-5-(7H-pyrrolo[2,3-d]pyrimidin-4-yl)-5,8-diazaspiro[2.5]octane-8-sulfonamide] | > 500 | 100 to 500 | < 100 | 100 to 500 |
| CN(C1COC1)S(=O)(=O)N1CCN(c2ncnc3[nH]ccc23)CC12CC2 [Example 112, N-methyl-N-(oxetan-3-yl)-5-(7H-pyrrolo[2,3-d]pyrimidin-4-yl)-5,8-diazaspiro[2.5]octane-8-sulfonamide] | 100 to 500 | < 100 | < 100 | < 100 |
| N#CCN(C1COC1)S(=O)(=O)N1CCN(c2ncnc3[nH]ccc23)CC12CC2 [Example 113, N-(cyanomethyl)-N-(oxetan-3-yl)-5-(7H-pyrrolo[2,3-d]pyrimidin-4-yl)-5,8-diazaspiro[2.5]octane-8-sulfonamide] | < 100 | < 100 | < 100 | < 100 |
| N#CCCCN(C1COC1)S(=O)(=O)N1CCN(c2ncnc3[nH]ccc23)CC12CC2 [Example 114, N-(3-cyanopropyl)-N-(oxetan-3-yl)-5-(7H-pyrrolo[2,3-d]pyrimidin-4-yl)-5,8-diazaspiro[2.5]octane-8-sulfonamide] | < 100 | < 100 | < 100 | < 100 |
| O=S(=O)(N(CCOc1ccccc1)C1COC1)N1CCN(c2ncnc3[nH]ccc23)CC12CC2 [Example 115, N-(oxetan-3-yl)-N-(2-phenoxyethyl)-5-(7H-pyrrolo[2,3-d]pyrimidin-4-yl)-5,8-diazaspiro[2.5]octane-8-sulfonamide] | 100 to 500 | < 100 | < 100 | < 100 |
| O=S(=O)(N(CCO)C1COC1)N1CCN(c2ncnc3[nH]ccc23)CC12CC2 [Example 116, N-(2-hydroxyethyl)-N-(oxetan-3-yl)-5-(7H-pyrrolo[2,3-d]pyrimidin-4-yl)-5,8-diazaspiro[2.5]octane-8-sulfonamide] | > 500 | < 100 | < 100 | 100 to 500 |
| CC(C#N)N(C1COC1)S(=O)(=O)N1CCN(c2ncnc3[nH]ccc23)CC12CC2 (stereo not drawn) [Example 117, N-(1-cyanoethyl)-N-(oxetan-3-yl)-5-(7H-pyrrolo[2,3-d]pyrimidin-4-yl)-5,8-diazaspiro[2.5]octane-8-sulfonamide] | 100 to 500 | < 100 | < 100 | < 100 |
| CCCS(=O)(=O)N1CCC(CN(C)S(=O)(=O)N2CCN(c3ncnc4[nH]ccc34)CC23CC3)C1 (stereo not drawn) [Example 118, N-methyl-N-[(1-propylsulfonylpyrrolidin-3-yl)methyl]-5-(7H-pyrrolo[2,3-d]pyrimidin-4-yl)-5,8-diazaspiro[2.5]octane-8-sulfonamide] | 100 to 500 | < 100 | < 100 | < 100 |
| CN(CC1CCN(S(C)(=O)=O)C1)S(=O)(=O)N1CCN(c2ncnc3[nH]ccc23)CC12CC2 (stereo not drawn) [Example 119, N-methyl-N-[(1-methylsulfonylpyrrolidin-3-yl)methyl]-5-(7H-pyrrolo[2,3-d]pyrimidin-4-yl)-5,8-diazaspiro[2.5]octane-8-sulfonamide] | 100 to 500 | < 100 | < 100 | < 100 |
| COCCS(=O)(=O)N1CCC(CN(C)S(=O)(=O)N2CCN(c3ncnc4[nH]ccc34)CC23CC3)C1 (stereo not drawn) [Example 120, N-[[1-(2-methoxyethylsulfonyl)pyrrolidin-3-yl]methyl]-N-methyl-5-(7H-pyrrolo[2,3-d]pyrimidin-4-yl)-5,8-diazaspiro[2.5]octane-8-sulfonamide] | 100 to 500 | < 100 | < 100 | < 100 |
| CN(CC1CCN(S(=O)(=O)CCCC#N)C1)S(=O)(=O)N1CCN(c2ncnc3[nH]ccc23)CC12CC2 (stereo not drawn) [Example 121, N-[[1-(3-cyanopropylsulfonyl)pyrrolidin-3-yl]methyl]-N-methyl-5-(7H-pyrrolo[2,3-d]pyrimidin-4-yl)-5,8-diazaspiro[2.5]octane-8-sulfonamide] | 100 to 500 | < 100 | < 100 | < 100 |
| CN(CC1CCN(S(=O)(=O)CC2CC2)C1)S(=O)(=O)N1CCN(c2ncnc3[nH]ccc23)CC12CC2 (stereo not drawn) [Example 122, N-[[1-(cyclopropylmethylsulfonyl)pyrrolidin-3-yl]methyl]-N-methyl-5-(7H-pyrrolo[2,3-d]pyrimidin-4-yl)-5,8-diazaspiro[2.5]octane-8-sulfonamide] | 100 to 500 | < 100 | < 100 | < 100 |
| CN(CC1CCN(C(=O)CCO)C1)S(=O)(=O)N1CCN(c2ncnc3[nH]ccc23)CC12CC2 (stereo not drawn) [Example 123, N-[[1-(3-hydroxypropanoyl)pyrrolidin-3-yl]methyl]-N-methyl-5-(7H-pyrrolo[2,3-d]pyrimidin-4-yl)-5,8-diazaspiro[2.5]octane-8-sulfonamide] | > 500 | < 100 | < 100 | 100 to 500 |
| CC(O)CC(=O)N1CCC(CN(C)S(=O)(=O)N2CCN(c3ncnc4[nH]ccc34)CC23CC3)C1 (stereo not drawn) [Example 124, N-[[1-(3-hydroxybutanoyl)pyrrolidin-3-yl]methyl]-N-methyl-5-(7H-pyrrolo[2,3-d]pyrimidin-4-yl)-5,8-diazaspiro[2.5]octane-8-sulfonamide] | > 500 | < 100 | < 100 | 100 to 500 |
| CCC(=O)N1CCC(CN(C)S(=O)(=O)N2CCN(c3ncnc4[nH]ccc34)CC23CC3)C1 (stereo not drawn) [Example 125, N-methyl-N-[(1-propanoylpyrrolidin-3-yl)methyl]-5-(7H-pyrrolo[2,3-d]pyrimidin-4-yl)-5,8-diazaspiro[2.5]octane-8-sulfonamide] | > 500 | < 100 | < 100 | 100 to 500 |
| CN(CC1CCN(C(=O)CCC#N)C1)S(=O)(=O)N1CCN(c2ncnc3[nH]ccc23)CC12CC2 (stereo not drawn) [Example 126, N-[[1-(3-cyanopropanoyl)pyrrolidin-3-yl]methyl]-N-methyl-5-(7H-pyrrolo[2,3-d]pyrimidin-4-yl)-5,8-diazaspiro[2.5]octane-8-sulfonamide] | > 500 | < 100 | < 100 | 100 to 500 |
| CN(CC1CCN(C(=O)C(O)CO)C1)S(=O)(=O)N1CCN(c2ncnc3[nH]ccc23)CC12CC2 (stereo not drawn) [Example 127, N-[[1-(2,3-dihydroxypropanoyl)pyrrolidin-3-yl]methyl]-N-methyl-5-(7H-pyrrolo[2,3-d]pyrimidin-4-yl)-5,8-diazaspiro[2.5]octane-8-sulfonamide] | > 500 | < 100 | < 100 | 100 to 500 |
| CN(CC1CCN(C=O)C1)S(=O)(=O)N1CCN(c2ncnc3[nH]ccc23)CC12CC2 (stereo not drawn) [Example 128, N-[(1-formylpyrrolidin-3-yl)methyl]-N-methyl-5-(7H-pyrrolo[2,3-d]pyrimidin-4-yl)-5,8-diazaspiro[2.5]octane-8-sulfonamide] | > 500 | < 100 | < 100 | < 100 |
| CN(C(=O)CC(F)(F)F)S(=O)(=O)N1CCN(c2ncnc3[nH]ccc23)CC12CC2 [Example 129, 3,3,3-trifluoro-N-methyl-N-[[5-(7H-pyrrolo[2,3-d]pyrimidin-4-yl)-5,8-diazaspiro[2.5]octan-8-yl]sulfonyl]propanamide] | 100 to 500 | < 100 | < 100 | 100 to 500 |
| CN(C(=O)C1CCC(F)(F)CC1)S(=O)(=O)N1CCN(c2ncnc3[nH]ccc23)CC12CC2 [Example 130, 4,4-difluoro-N-methyl-N-[[5-(7H-pyrrolo[2,3-d]pyrimidin-4-yl)-5,8-diazaspiro[2.5]octan-8-yl]sulfonyl]cyclohexanecarboxamide] | 100 to 500 | < 100 | < 100 | < 100 |
| CN(C(=O)CCC(F)(F)F)S(=O)(=O)N1CCN(c2ncnc3[nH]ccc23)CC12CC2 [Example 131, 4,4,4-trifluoro-N-methyl-N-[[5-(7H-pyrrolo[2,3-d]pyrimidin-4-yl)-5,8-diazaspiro[2.5]octan-8-yl]sulfonyl]butanamide] | < 100 | < 100 | < 100 | 100 to 500 |
